Results taken from US11623944B2, “Paenibacillus strain, antifungal compounds, and methods for their use” (Bayer CropScience LP, priority 2015, dated 2023).

Tested on: Paenibacillus sp. strain NRRL B-50972
Test: Antibiotic sensitivity on sLB agar
Assay type: cell-based
Details: growth after 24, 48, 72 hours at 30° C.

Compound	Sensitive/Resistant (antibiotic 25 μg/mL)	Sensitive/Resistant (antibiotic 10 μg/mL)
CCn1cc(C(=O)O)c(=O)c2ccc(C)nc21 [Nalidixic acid]	Sensitive	
Polymyxin B		Resistant
